Columns and labels:
[1] = tested in humans; cited from earlier work
[2] = system: ACAT; conditions: ACAT1 vs ACAT2; cited from earlier work
[3] = system: quadruple knock-out strain cultures harboring vector with either DGAT1 or LacZ gene; experiment: Growth of quadruple knock-out yeast expressing DGAT1 or LacZ on solid medium supplemented with fatty acids; format: cell-based, Saccharomyces cerevisiae; conditions: for selectivity of the media at lowered concentration: 0.5 mM fatty acid; for suitability for selection: 0.5 mM (500 μM) fatty acid; for growth of DGAT1 and LacZ cultures: 1 mM fatty acid
Protocol: (A) Plates of YNBG with and without supplement of 1 mM of oleic acid (C18:1) dissolved in ethanol. The plate without FA contained the same volume of ethanol only. (B) Plates of YNBG supplemented with 1 mM of palmitoleic (16:1^cisΔ9), linoleic (18:2^cisΔ9,12), α-linolenic (C18:3), docosahexaenoic (C22:6), ricinoleic (C18:1 OH), erucic (C22:1) and 0.5 mM of palmitic (C16:0) and stearic (C18:0) acids. The FAs were dissolved in ethanol at 0.5M or 0.25M and added to the YNBG prior to plating. (C) Plates supplemented with oleic, α-linolenic and docosahexaenoic acids at the final concentrations indicated. (D) Selection of yeast cells in medium with FA after transformation. H1246 cells were transformed with 1 μg of pYESBnDGAT1 (column 1), 1 μg of pYESLacZ (column 2) and 0.1 μg of pYESBnDGAT1 mixed with 0.9 μg of pYESLacZ (column 3). After transformation, yeast cells were recovered in liquid YNBD medium for 6 hours, inoculated in YNBG plates with or without supplement of 1 mM oleic acid and incubated at 30° C. for 6 days.

[4] = system: S. cerevisiae strain H1246 (quadruple knock-out); experiment: Growth of knock-out yeast in liquid medium supplemented with oleic acid; conditions: growth measured for 72 hours
Protocol: Oleic acid, dissolved in ethanol at 0.5M, was supplemented to the cultures at the final concentrations indicated. The cultures were incubated at 30 °C, 250 rpm and the growth was monitored for 72 hours.
Three yeast strains (wild type, dga1 knock-out and quadruple knock-out) were transformed with yeast expression vector pYES2.1-TOPO (Invitrogen) containing a cDNA coding for DGAT1 from several oilseed plants (canola, flax or castor bean). The same vector containing the gene coding for the bacterial protein LacZ served as the negative control. Transformed yeast cells were cultivated in 50 mL of uracil drop-out medium supplemented with 2% glucose for 48 hours shaking at 30° C. and 250 rpm. The cells were washed twice with water and inoculated in liquid media supplemented with 2% galactose, 1% raffinose to induce the expression of the recombinant proteins, and different concentrations of free fatty acids (0 to 1000 μM of oleic acid). […] Cell growth was measured for a period of 72 hours.

In the case of `CC(C)c1cc(C(C)C)c(CC(=O)NS(=O)(=O)Oc2c(C(C)C)cccc2C(C)C)c(C(C)C)c1` [avasimibe], the efficacy against atherosclerosis [1] is given as “ineffective against atherosclerosis”, the harm [1] is given as “probably harmful due to ACAT1 inhibition” and the “selectivity among ACAT isoforms” value [2] is given as “nonselective ACAT inhibitors”.
In the case of `CCCCCCCC/C=C\CCCCCCCCCCCC(=O)O` [erucic, erucic acid], the “selectivity of the media at lowered concentration” value [3] is reported as “did not substantially improve the selectivity”.
In the case of `CCCCC/C=C\C/C=C\CCCCCCCC(=O)O` [linoleic, linoleic acid], the suitability for selection [3] is reported as “suitable for selection” and the “growth of DGAT1 and LacZ cultures” value [3] is reported as “inhibited the growth of both cultures”.
With `CCCCCCCC/C=C\CCCCCCCC(=O)O` [oleic acid] the “colony formation on solid medium” value ([3]; 1000 μM oleic acid, five days at 30° C., DGAT1 vs LacZ) was “only the cells expressing the recombinant DGAT1 formed visible colonies”, the “concentration most effective in distinguishing strains with and without TAG synthase activity” value [4] was 1000 µM and the “lowest concentration at which the inhibitory effect on growth was observed” value ([4]; knock-out strains without recombinant DGAT1) was 25 µM.
For `CCCCCCCCN1CCc2c(C)c(CC(=O)O)c(C)c(NC(=O)C(C)(C)C)c21` [pactimibe], the efficacy against atherosclerosis [1] is given as “ineffective against atherosclerosis”, the harm [1] is given as “probably harmful due to ACAT1 inhibition” and the “selectivity among ACAT isoforms” value [2] is given as “nonselective ACAT inhibitors”.
With `CCCCCCCCCCCCCCCC(=O)O` [palmitic, palmitic acid] the “selectivity of the media at lowered concentration” value [3] was “did not substantially improve the selectivity”.
In the case of `CCCCCCCCCCCCCCCCCC(=O)O` [stearic, stearic acid], the “selectivity of the media at lowered concentration” value [3] is reported as “did not substantially improve the selectivity”.
With `CC/C=C\C/C=C\C/C=C\CCCCCCCC(=O)O` [α-linolenic, α-linolenic acid] the suitability for selection [3] was “suitable for selection” and the “growth of DGAT1 and LacZ cultures” value [3] was “inhibited the growth of both cultures”.
